Series [1] in a line: Skin images (confocal microscopy) for skin damage after the electrical treatment. Also on record: species or system porcine. Conditions: for skin damage in skin images: electroporation condition 9 plus iontophoresis. The procedure:
The combination of such parameters with iontophoresis at 0.2 mA/cm^2 for 20 min has also been corroborated (x 12 vs. passive diffusion).
9. Take photos to make a visual record of skin condition.
The skin images obtained provide more information about the possible skin damage produced by the electroporation treatment.

The nature of series [2]: In vitro skin deposition of FL-HA (120 kDa) in Franz diffusion cells, fluorimetry. Type of series: in vitro ADME, porcine. From the text: The effect of electroporation parameters on skin integrity and transport of hyaluronic acid (at 1% by weight in water) 120 kDa (HA) labeled with fluorescein into the permeabilzed skin was investigated in vitro using electroporation vs. its passive diffusion.
ii) porating mode (100-250 V, shorter pulse lengths and low number of pulses). Franz-diffusion cells were used to evaluate the in vitro delivery.
Porcine ear skin was used for the in vitro studies. It is accepted as a good model for the human skin barrier. Hairs were excised from the skin surface using clippers. The skin was “sliced” so as to obtain samples with an average thickness of 1.5 mm for all samples. Skin was frozen (−20° C.) or stored at 4° C. until use.
The FL-HA was quantified using by fluorimetry. The measurements were performed using a microplate reader. The excitation and emission wavelengths were 494 and 514 nm. The gain was adjusted to 80 in order to obtain better sensitivity of the samples. All samples were put in polystyrene 96-well plates and protected from the light until analysis. Furthermore, a calibration curve was included in every plate.
The aim of the experiments was to quantify penetration of FL-HA (120 kDa) into intact, electroporated porcine ear skin with and without iontophoresis) as a function of duration using the optimal treatment conditions identified in the previous part of the study. Electroporation treatment was performed either as (i) pre-treatment, where electroporation was performed before formulation application, or as (ii) co-treatment, where the elcetroporation treatment was performed simultaneou.sly in the presence of the formulation. All conditions were tested for 10 and 20 min.
3. Condition 9 (Voltage 250 V, Pulse length 15 ms, Pulse interval 50 ms and 9 Pulses), pre-treatment with electroporation
4. Condition 9 (Voltage 250 V, Pulse length 15 ms, Pulse interval 50 ms and 9 Pulses), simultaneous treatment with electroporation and formulation
7. Control: Application of an aqueous solution of FL-HA (120 kDa) formula on (1% w/w) to “untreated” skin. […]

hyaluronic acid [HA 120 kDa]: the “visual damage to the membrane (skin)” value in series [1] (electroporation alone, 250 V, pulse length 15 ms, pulse interval 50 ms, <10 pulses) is reported as “no visual damage”. Also, the “skin damage in skin images” value in series [1] is listed as “lack of significant damage to the skin”; in series [1] (listed as 120 kDa FL-HA formulation) it was “no damage was observed”. In addition, the “skin deposition, electroporation plus iontophoresis (CT+I) compared with electroporation alone (CT)” value is reported as “statistically superior” in series [2] (condition 9, iontophoresis 0.2 mA/cm^2 for 20 min, p<0.05, ANOVA, Student Newman Keuls test) and “not increasing the deposition” in series [2] (condition 9, iontophoresis 0.2 mA/cm^2 up to 10 min). For the same substance, in series [2] (electroporation combined with iontophoresis at 0.2 mA/cm^2 for 20 min), the “increase in skin deposition vs. passive diffusion” value is recorded as 12 x.

The values above are taken from US20200254241A1, “ELECTRICAL METHOD OF DELIVERING HYALURONIC ACID THROUGH THE SKIN” (priority 2017, published 2020).
